Read-outs that look alike come from different tables or passages of the source. Where no end group is shown, it is not given here.
Columns and labels:
[1] = test system: HBV; settings: compared with lamivudine; cited from earlier work
[2] = test system: HBV; settings: 715 treatment-naive HBeAg-positive patients, compared with lamivudine; cited from earlier work
[3] = human, in vivo; cited from earlier work
[4] = test system: target mRNA; settings: cited from earlier work
[5] = test system: target mRNA; experiment: HK polymers as carriers of siRNA (transfection, reduction of target mRNA); assay type: cell-based; settings: highly branched polymers with eight terminal branches
[6] = siRNA uptake with HK carriers; assay type: cell-based; settings: compared with other HK polymers or non-viral carriers tested

C=C1[C@H](CO)[C@@H](O)C[C@@H]1n1cnc2c(=O)[nH]c(N)nc21 [Entecavir]
reducing viral DNA replication in vitro [1]: more effective than lamivudine | rate of histological, virological and biochemical improvement [2]: significantly higher rate

Cc1cn([C@H]2O[C@@H](CO)[C@H](O)[C@H]2F)c(=O)[nH]c1=O [Clevudine, 2′-fluoro-5-methyl-b-L-arabinofuranosyl-uracil]
adverse events that halted development [3]: myopathy and mitochondrial toxicity

H^2K4b: four-branched histidine-lysine peptide polymer, branch KHKHHKHHKHHKHHKHHKHK- (also: one branch of four-branched polymer on lysine core)
carrier of siRNA [4]: poor carrier

H^3K4b: four-branched histidine-lysine peptide polymer, branch KHHHKHHHKHHHKHHHK- (also: one branch of four-branched polymer on lysine core)
carrier of siRNA [4]: effective carriers

B1: H^3K8b: highly branched histidine-lysine polymer with eight terminal branches and a histidine-rich domain (peptide)
chain 1: HHHKHHHKHHHKHHH
chain 2: HHHKHHHKHHHKHHHKHHHHNHHHH
chain 3: HHHKHHHKHHHKHHHKHHHHNHHHHKKK-NH2
modifications: also: chain 2 K16 side chain amide-linked to another sequence, chain 3 K16, K26, K27, K28 side chains amide-linked to other sequences (branched core)
carrier of siRNA [5]: highly effective | siRNA uptake [6]: more effectively than other HK polymers or non-viral carriers tested

From patent US20240158794A1, “NUCLEOSIDE CONTAINING siRNAS FOR TREATING VIRAL DISEASES” (priority 2020, published 2024)
